Measured values reported in article PMC7403393 (Scientific Reports, 2020).
Counter-ions that a name gives are not always drawn. Like-named read-outs stand apart in the source and are kept apart here.

Experiments:
[1] = system: SARS-CoV-2
[2] = system: SARS-CoV-2; assay: EC50/EC90 determination by quantification of viral genome (real-time RT-PCR) in VeroE6 cells; type: cell-based, SARS-CoV-2 strain BavPat1; conditions: for activity at 40 µM: VeroE6, 40 µM
[3] = system: SARS-CoV-2; conditions: 5 and 10 µM
[4] = system: VeroE6 cells; set-up: method as in PMID 29642580; conditions: cited from earlier work
[5] = system: SARS-CoV-2; assay: microbe, parasite or virus in culture; conditions: Severe acute respiratory syndrome coronavirus 2, Vero C1008, read-out: cell viability
[6] = in vitro; conditions: African green monkey
[7] = system: VeroE6 cells; conditions: VeroE6, no virus, CellTiter Blue
[8] = system: SARS-CoV-2; set-up: method as in earlier work; conditions: cited from earlier work
[9] = system: SARS-CoV-2; assay: microbe, parasite or virus in culture; conditions: Severe acute respiratory syndrome coronavirus 2, Caco-2, read-out: replication inhibition
[10] = 10 µM compound, VeroE6, MOI 0.002, 3 days after infection, normalized cell viability relative to 10 µM arbidol
[11] = VeroE6, viral RNA by RT-qPCR, 2 days, read-out: EC50
[12] = Severe acute respiratory syndrome coronavirus 2, Vero C1008, 48 h, VeroE6, viral RNA by RT-qPCR, 2 days, read-out: EC50
[13] = Severe acute respiratory syndrome coronavirus 2, Vero C1008, 48 h, VeroE6, viral RNA by RT-qPCR, 2 days, read-out: EC90
[14] = selectivity index CC50/EC50, VeroE6
[15] = Severe acute respiratory syndrome coronavirus 2, Vero C1008, 48 h
[16] = Severe acute respiratory syndrome coronavirus 2, Vero C1008, 48 h, VeroE6, viral RNA by RT-qPCR, 2 days
[17] = VeroE6, viral RNA by RT-qPCR, 2 days, read-out: EC90

O=C([O-])c1ccccc1-c1c2cc(Br)c(=O)cc-2oc2[c]([Hg+])c([O-])c(Br)cc12.[Na+].[Na+].[OH-] [Merbromin disodium salt]
Inhibition index [1]: 1.12

CCN(CC)CCCC(C)Nc1ccnc2cc(Cl)ccc12 (centres unmarked) [Chloroquine diphosphate]
Inhibition index [1, 10]: 1.35

COc1ccc(CC(C)NCC(O)c2ccc(O)c(NC=O)c2)cc1 (centres unmarked) [Formoterole]
EC50 [2, 11]: ≥ 40 µM

C[C@]12CC[C@H](O)C[C@@H]1CC[C@@H]1[C@@H]2CC[C@]2(C)C(=O)CC[C@@H]12 [Epiandrosterone]
Inhibition index [1, 10]: 1.07

CN(C)CCCN1c2ccccc2Sc2ccccc21 [Promazine hydrochloride]
Inhibition index [1, 10]: 1.16

CCOC(=O)c1c(CSc2ccccc2)n(C)c2cc(Br)c(O)c(CN(C)C)c12 [Arbidol]
EC50 [2, 12]: 10.7 µM | EC90 [2, 13]: 15.2 µM | SI [2, 14]: > 3.7 | antiviral effect in Caco-2 cells (in words) [3]: weaker than the one observed in VeroE6 | CC50 [4]: > 40 µM | viability at 10 µM [5]: 70 to 90%

CCCCC[C@H](O)/C=C/[C@H]1[C@H](O)CC(=O)[C@@H]1CCCCCCC(=O)O [Alprostadil]
EC90 [2, 15]: > 40 µM | EC50 [2, 16]: 5.39 µM | SI [2, 14]: > 7.4 | CC50 at 2 days ([6]; VeroE6 cells (no virus)): > 40 µM

C=C[C@H]1C[N@@]2CC[C@H]1C[C@@H]2[C@@H](O)c1ccnc2ccc(OC)cc12 [Quinidine hydrochloride]
SI [2]: > 7.8 | EC50 [2, 12]: 5.11 µM | EC90 [2, 13]: > 40 µM | CC50 at 2 days ([6]; VeroE6 cells (no virus)): > 40 µM

CN1CCN2c3ncccc3Cc3ccccc3C2C1 (centres unmarked) [Mirtazapine]
Inhibition index [1, 10]: 1.03

COc1ncnc(NS(=O)(=O)c2ccc(N)cc2)c1OC [Sulfadoxine]
EC90 [2, 15]: > 40 µM | EC50 [2, 16]: > 30 µM | EC50 [2, 11]: 35.4 µM | SI [2, 14]: > 1.13 | antiviral effect in Caco-2 cells (in words) [3]: Arbidol-like result | CC50 at 2 days [6]: > 40 µM

Spiramycin
SI [2]: > 5 | EC50 [2, 11]: 7.95 µM | EC90 [2, 17]: 10.5 µM | CC50 [7]: > 40 µM

C=C1C[C@@H]2[C@H](CC[C@]3(C)C(=O)CC[C@@H]23)[C@@]2(C)C=CC(=O)C=C12 [Exemestane]
EC90 [2, 15]: 9.86 µM | EC50 [2, 16]: 7.51 µM | Inhibition index [1, 10]: 1.10 | antiviral effect in Caco-2 cells (in words) [3]: Arbidol-like result | CC50 at 2 days [6]: > 40 µM

Nc1c2c(nc3ccccc13)CCCC2 [Tacrine hydrochloride]
Inhibition index [1, 10]: 1.44

C[C@@H]1CCO[C@H]2Cn3cc(C(=O)NCc4ccc(F)cc4F)c(=O)c(O)c3C(=O)N12 [Dolutegravir]
EC90 [2, 15]: > 40 µM | EC50 [2, 12]: 22 µM | SI [2, 14]: > 1.8 | CC50 at 2 days ([6]; VeroE6 cells (no virus)): > 40 µM

COC(c1ccccc1)(c1ccccc1)[C@H](Oc1nc(C)cc(C)n1)C(=O)O [Ambrisentan]
EC50 [2, 12]: ≥ 40 µM | activity at 40 µM [2]: lack of activity

CCOc1nc2cccc(C(=O)O)c2n1Cc1ccc(-c2ccccc2-c2nnn[nH]2)cc1 [Candesartan]
activity at 40 µM [2]: lack of activity

CCCCOc1ccc(C(=O)CCN2CCCCC2)cc1 [Dyclonine hydrochloride]
EC50 [2, 12]: 10 µM | EC90 [2, 13]: > 40 µM | SI [2, 14]: > 4 | antiviral effect in Caco-2 cells (in words) [3]: Arbidol-like result | CC50 at 2 days ([6]; VeroE6 cells (no virus)): > 40 µM

Cn1nnnc1SCC1=C(C(=O)O)N2C(=O)[C@@H](NC(=O)[C@H](O)c3ccccc3)[C@H]2SC1 [Cefamandole]
EC50 [2, 12]: ≥ 40 µM

CNCc1cc(-c2ccccc2F)n(S(=O)(=O)c2cccnc2)c1 [Vonoprazan]
EC90 [2, 15]: > 40 µM | EC50 [2, 16]: > 30 µM | EC50 [2, 11]: 38.6 µM | SI [2, 14]: > 1 | CC50 at 2 days [6]: > 40 µM

CC[C@H]1OC(=O)[C@H](C)[C@@H](O[C@H]2C[C@@](C)(OC)[C@@H](O)[C@H](C)O2)[C@H](C)[C@@H](O[C@@H]2O[C@H](C)C[C@H](N(C)C)[C@H]2O)[C@](C)(O)C[C@@H](C)CN(C)[C@H](C)[C@@H](O)[C@]1(C)O [Azithromycine]
EC50 [2, 12]: 2.12 µM | EC90 [2, 13]: 8.65 µM | SI [2, 14]: > 19 | antiviral effect in a macaque model [8]: no antiviral effect | CC50 at 2 days ([6]; VeroE6 cells (no virus)): > 40 µM

CCN(CCO)CCCC(C)Nc1ccnc2cc(Cl)ccc12 (centres unmarked) [Hydroxychloroquine sulfate]
EC50 [2, 12]: 4.17 µM | EC90 [2, 13]: 25.5 µM | antiviral effect in a macaque model [8]: no antiviral effect | CC50 at 2 days [6]: > 40 µM

CC(C)(C)NC[C@H](O)c1ccc(O)c(CO)c1 [Levalbuterol]
EC50 [2, 12]: ≥ 40 µM

CCCCOc1cc(C(=O)OCCN(CC)CC)ccc1N [Benoxinate hydrochloride]
Inhibition index [1, 10]: 1.19

CNCC(O)c1ccc(OC(=O)C(C)(C)C)c(OC(=O)C(C)(C)C)c1 (centres unmarked) [Dipivefrin hydrochloride]
Inhibition index [1, 10]: 1.01

Cl.Clc1ccc(Cn2c(CN3CCCC3)nc3ccccc32)cc1 [Clemizole hydrochloride]
EC50 [2, 11]: 23.9 µM | EC90 [2, 17]: 38.2 µM | SI [2, 14]: > 1.7 | Inhibition index [1, 10]: 1.01 | CC50 [7]: > 40 µM

C=CCOc1ccccc1OCC(O)CNC(C)C (centres unmarked) [Oxprenolol hydrochloride]
EC50 [2, 12]: 20.2 µM | EC90 [2, 13]: > 40 µM | SI [2, 14]: > 2 | CC50 at 2 days ([6]; VeroE6 cells (no virus)): > 40 µM

CC(=O)[C@H]1CC[C@H]2[C@@H]3CC=C4C[C@@H](O)CC[C@]4(C)[C@H]3CC[C@]12C [Pregnenolone]
Inhibition index [1, 10]: 1.66

COc1ccccc1OCC(O)CN1CCN(CC(=O)Nc2c(C)cccc2C)CC1 (centres unmarked) [Ranolazine]
EC50 [2, 12]: ≥ 40 µM

OCCN1CCN(CCCN2c3ccccc3C=Cc3ccccc32)CC1 [Opipramol dihydrochloride]
EC50 [2, 12]: 5.05 µM | EC90 [2, 13]: 5.97 µM | SI [2, 14]: > 7.9 | Inhibition index [1, 10]: 1.05 | CC50 at 2 days ([6]; VeroE6 cells (no virus)): > 40 µM

CC(C)CN(C[C@@H](O)[C@H](Cc1ccccc1)NC(=O)O[C@H]1CO[C@H]2OCC[C@H]21)S(=O)(=O)c1ccc(N)cc1 [Darunavir]
EC50 [2, 12]: ≥ 40 µM

CCCc1nc(C(C)(C)O)c(C(=O)O)n1Cc1ccc(-c2ccccc2-c2nnn[nH]2)cc1 [Olmesartan]
EC50 [2, 12]: ≥ 40 µM | activity at 40 µM [2]: lack of activity

COc1ccc2[nH]c([S+]([O-])Cc3ncc(C)c(OC)c3C)nc2c1 (centres unmarked) [Omeprazole]
EC50 [2, 12]: 17.1 µM | EC90 [2, 13]: 38 µM | CC50 at 2 days ([6]; VeroE6 cells (no virus)): > 40 µM

O=C(CCCN1CCC2(CC1)C(=O)NCN2c1ccccc1)c1ccc(F)cc1 [Spiperone]
EC90 [2, 13]: 13.1 µM | CC50 at 2 days [6]: > 40 µM

CCC(CC)COC(=O)[C@H](C)N[P@](=O)(OC[C@H]1O[C@@](C#N)(c2ccc3c(N)ncnn23)[C@H](O)[C@@H]1O)Oc1ccccc1 [Remdesivir]
inhibition at 5 µM [9]: 100% | inhibition at 10 µM [9]: 100%
